Literature values as cited in publication PMC10593844, “Structure-function analyses reveal key molecular determinants of HIV-1 CRF01_AE resistance to the entry inhibitor temsavir” (Nature Communications, 2023).

What was measured:
[1] = test system: laboratory-adapted NL4-3 HIV-1 strain; set-up: method as in PMID 30604750; conditions: cited from earlier work
[2] = test system: CRF01_AE strains; set-up: method as in PMID 30604750; conditions: range over CRF01_AE strains; cited from earlier work

| Structure (SMILES) | fold greater inhibition than temsavir [1] | IC50 [2] |
| --- | --- | --- |
| COc1cnc(-c2csc(C(=O)NCCO)n2)c2[nH]cc(C(=O)C(=O)N3CCC(=C(C#N)c4ccccc4)CC3)c12 [BMS-818251] | ~ 100 fold | 32 to 733 nM |
| COc1cnc(-c2csc(CN(C)CCCN(C)C)n2)c2[nH]cc(C(=O)C(=O)N3CCC(=C(C#N)c4ccccc4)CC3)c12 [BMS-814508] | 4 fold | – |
